Assay results from publication PMC10059848, “Inhibition Kinetics and Theoretical Studies on Zanthoxylum chalybeum Engl. Dual Inhibitors of α-Glucosidase and α-Amylase” (Journal of Xenobiotics, 2023).

How the values were obtained:
[1] = molecular target: yeast α-glucosidase (Saccharomyces cerevisiae, UniProt P53341); assay: Inhibition kinetics of α-glucosidase (Lineweaver–Burk and Dixon plots); type: biochemical; conditions: for Inhibition Mode, α-Glucosidase: Lineweaver–Burk plots
[2] = molecular target: T1, porcine pancreas α-amylase (Sus scrofa, UniProt P00690); assay: Inhibition kinetics of α-amylase (Lineweaver–Burk and Dixon plots); conditions: for Inhibition Mode, α-Amylase: Lineweaver–Burk plots
T1 sequence (P00690 16-511): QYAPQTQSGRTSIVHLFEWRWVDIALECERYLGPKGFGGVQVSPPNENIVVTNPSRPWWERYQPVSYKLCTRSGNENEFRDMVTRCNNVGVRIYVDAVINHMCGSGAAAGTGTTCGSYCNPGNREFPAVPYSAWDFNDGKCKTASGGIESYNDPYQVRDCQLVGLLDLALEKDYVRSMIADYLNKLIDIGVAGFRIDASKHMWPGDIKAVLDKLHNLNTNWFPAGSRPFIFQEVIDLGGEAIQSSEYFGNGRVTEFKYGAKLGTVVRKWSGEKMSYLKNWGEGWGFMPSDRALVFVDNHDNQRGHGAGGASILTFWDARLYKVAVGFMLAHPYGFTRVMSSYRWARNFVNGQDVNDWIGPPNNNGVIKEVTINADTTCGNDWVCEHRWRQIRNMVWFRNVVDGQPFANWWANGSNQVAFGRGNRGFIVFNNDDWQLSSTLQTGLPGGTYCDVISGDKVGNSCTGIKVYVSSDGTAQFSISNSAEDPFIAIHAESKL
Text: Using Lineweaver–Burk plots, the mode of inhibition was established, followed by secondary plots (Dixon plots) depending on the established mode of inhibition. The following equation was used to obtain the inhibition constants (Ki) [15]: v=Vmax ×S/Km(1+[I]/Ki)+S(1+[I]/αKi) where S and I are the concentrations of the substrate and inhibitor, respectively; Vmax is the maximum velocity; Km is the Michaelis–Menten constant; Ki is the competitive inhibition constant; and αKi is the uncompetitive inhibition constant.
Lineweaver–Burk plots on monoreplicate tests were performed followed by Dixon secondary plots to determine the inhibition constants. The means of the observed triplicate inhibition constants were subjected to analysis of variance with Tukey HSD/Tukey Kramer post-analysis to compare means. The least significant difference was considered at p < 0.05 and the coefficient of determination (R^2) was obtained as the average of the regression curves from Dixon plots of individual experiments.

[3] = molecular target: α-glycosidase; parameters: method as in PMID 32889048; conditions: read-out: IC50 against α-glycosidase; cited from earlier work
[4] = Lineweaver-Burk plot, competitive inhibition

Sequence of yeast α-glucosidase (P53341 whole entry): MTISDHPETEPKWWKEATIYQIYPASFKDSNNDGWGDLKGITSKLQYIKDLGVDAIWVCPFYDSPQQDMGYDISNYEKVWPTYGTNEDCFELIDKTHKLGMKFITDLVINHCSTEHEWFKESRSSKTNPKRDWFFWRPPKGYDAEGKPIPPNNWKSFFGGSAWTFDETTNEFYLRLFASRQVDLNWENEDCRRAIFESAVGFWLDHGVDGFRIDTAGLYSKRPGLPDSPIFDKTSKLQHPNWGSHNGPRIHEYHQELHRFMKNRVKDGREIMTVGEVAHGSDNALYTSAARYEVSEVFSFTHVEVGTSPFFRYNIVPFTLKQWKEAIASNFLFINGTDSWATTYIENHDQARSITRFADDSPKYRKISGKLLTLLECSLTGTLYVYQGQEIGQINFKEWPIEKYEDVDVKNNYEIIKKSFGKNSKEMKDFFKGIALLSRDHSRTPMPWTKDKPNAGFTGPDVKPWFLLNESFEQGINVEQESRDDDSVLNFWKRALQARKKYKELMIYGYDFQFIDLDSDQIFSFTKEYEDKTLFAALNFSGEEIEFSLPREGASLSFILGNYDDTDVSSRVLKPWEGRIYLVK

OCC1OC1c1ccc2c(c1)OCO2 (stereo not shown) [Compound 10, 2,3-epoxy-6,7-methylenedioxyconiferol]
1/Vmax, α-glucosidase [1, 4]: 20.25 s⁻¹
Inhibition Mode, α-Glucosidase [1]: Competitive
1/Vmax, α-amylase [2, 4]: 24.47 s⁻¹
Inhibition Mode, α-Amylase [2]: Competitive

COc1ccc(CN(C)C(=O)c2ccccc2OC)cc1 [Compound 3, chalybemide C]
Inhibition Mode, α-Glucosidase [1]: Non-competitive
Inhibition Mode, α-Amylase [2]: Non-competitive

COc1ccc2c(cnc3c4cc5c(cc4ccc23)OCO5)c1OC [Compound 6, norchelerythrine]
Inhibition Mode, α-Glucosidase [1]: Mixed
Inhibition Mode, α-Amylase [2]: Mixed

COc1cc(-c2cc3cc(/C=C/CO)cc(OC)c3o2)ccc1O [Compound 9, ailanthoidol]
Inhibition Mode, α-Glucosidase [1]: Uncompetitive
Inhibition Mode, α-Amylase [2]: Uncompetitive

CC(C)CNC(=O)/C=C/c1ccc2c(c1)OCO2 [Compound 4, fagaramide]
Inhibition Mode, α-Glucosidase [1]: Non-competitive
Inhibition Mode, α-Amylase [2]: Non-competitive

6-hydroxy-N-methyldecarine [Compound 8]
Inhibition Mode, α-Glucosidase [1]: Mixed
Inhibition Mode, α-Amylase [2]: Mixed

c1cc2c(cc1C1OCC3C(c4ccc5c(c4)OCO5)OCC13)OCO2 (stereo not shown) [Compound 11, sesamine]
Inhibition Mode, α-Glucosidase [1]: non-competitive
Inhibition Mode, α-Amylase [2]: Non-competitive

COc1ccc2c(OC)c3ccoc3nc2c1OC [Compound 5, skimmianine]
Inhibition Mode, α-Glucosidase [1]: Mixed
Inhibition Mode, α-Amylase [2]: Mixed

CC(C)(O)CNC(=O)/C=C/c1ccccc1 [Compound 2, chalybemide B]
Inhibition Mode, α-Glucosidase [1]: Uncompetitive
Inhibition Mode, α-Amylase [2]: Non-competitive

CC(C)CNC(=O)/C=C/C/C=C/c1ccc2c(c1)OCO2 [Compound 1, Chalybemide A]
Inhibition Mode, α-Glucosidase [1]: Non-competitive
Inhibition Mode, α-Amylase [2]: Non-competitive

C[C@H]1O[C@H](O[C@H]2[C@H](O)[C@@H](O)[C@@H](O[C@H]3[C@H](O)[C@@H](O)C(O)O[C@@H]3CO)O[C@@H]2CO)[C@H](O)[C@@H](O)[C@@H]1N[C@H]1C=C(CO)[C@@H](O)[C@H](O)[C@H]1O (stereo partly shown) [Acarbose, acarbose, reference compound]
Inhibition Mode, α-Glucosidase [1]: Competitive
IC50 [3]: 44.9 µM
Inhibition Mode, α-Amylase [2]: Competitive
